Patent publication US20230320956A1, “DIARYLALKANE COMPOUNDS AND COMPOSITIONS FOR USE WITH SKIN AGING AND METHODS OF PRODUCTION THEREOF” (Unigen, Inc., priority 2022, published 2023)

System: keratinocytes (Hacat cell line)
Experiment: Global gene expression (RNA-seq) in treated keratinocytes
Type: cell-based, human
Details: for Fold change (gene expression): 40 μM vs untreated; for Fold Enrichment / Number of Genes Differentially Expressed: 40 μM
Method: To determine specific expression changes dimethoxytolyl propylresorcinol exerted on human keratinocyte aging genes, keratinocytes (Hacat cell line) were treated dimethoxytolyl propylresorcinol at 40 μM and gene expression was analyzed by RNA-seq. Differential gene expression was compared to untreated keratinocytes and cells treated with 40 μM Retinol A to find genes involved in aging. […] Retinol was chosen as a positive control because retinoids have been described as having effective anti-aging and anti-wrinkle effects (Zasada M, 2019). We directly compared the effects of Retinol on keratinocytes with the same concentration of dimethoxytolyl propylresorcinol.

[1] = Gene Cluster Activation of MAPK activity
[2] = Gene Cluster Calcium ion binding
[3] = Gene Cluster Cell-cell signaling
[4] = Gene Cluster Cellular response to lipopolysaccharide
[5] = Gene Cluster Cellular response to retinoic acid
[6] = Gene Cluster Epidermis development
[7] = Gene Cluster Epithelial cell differentiation
[8] = Gene Cluster Extracellular exosome
[9] = Gene Cluster Extracellular matrix organization
[10] = Gene Cluster Extracellular region
[11] = Gene Cluster Extracellular space
[12] = Gene Cluster Growth factor activity
[13] = Gene Cluster Hyaluronan biosynthetic process
[14] = Gene Cluster Inflammatory response
[15] = Gene Cluster Intermediate filament cytoskeleton organization
[16] = Gene Cluster Keratinocyte differentiation
[17] = Gene Cluster Negative regulation of ERK1 and ERK2 cascade
[18] = Gene Cluster Negative regulation of cell proliferation
[19] = Gene Cluster Negative regulation of endopeptidase activity
[20] = Gene Cluster Neutrophil chemotaxis
[21] = Gene Cluster O-glycan processing
[22] = Gene Cluster Osteoblast differentiation
[23] = Gene Cluster Positive regulation of angiogenesis
[24] = Gene Cluster Positive regulation of cell migration
[25] = Gene Cluster Positive regulation of cell proliferation
[26] = Gene Cluster Positive regulation of gene expression
[27] = Gene Cluster Positive regulation of smooth muscle cell proliferation
[28] = Gene Cluster Proteinaceous extracellular matrix
[29] = Gene Cluster Transforming growth factor beta receptor binding

SMILES: COc1ccc(CCCc2ccc(O)cc2O)c(OC)c1C [dimethoxytolyl propylresorcinol, 1-(3-methyl-2,4-dimethoxyphenyl)-3-(2′,4′-dihydroxyphenyl)-propane]
- Fold change (gene expression) (AHR - Aryl hydrocarbon receptor, Oxidative stress): 1.73 fold
- Fold change (gene expression) (ANGPTL4 - Angiopoietin-like 4, Negative regulation of growth/Angiogenesis): 8.23 fold
- Fold change (gene expression) (ANOS1 - Anosmin 1, ECM/Nerve adhesion): 0.49 fold
- Fold change (gene expression) (BMP4 - Bone morphogenetic protein 4, Growth): 0.41 fold
- Fold change (gene expression) (C3orf33 - Chromosome 3 open reading frame 33, Negative regulation of growth): 3.03 fold
- Fold change (gene expression) (CD1D - CD1d molecule, ECM): 0.36 fold
- Fold change (gene expression) (CDK5R1 - Cyclin-dependent kinase 5 activator 1, Growth/Skin barrier): 1.54 fold
- Fold change (gene expression) (CEACAM1 - CEA cell adhesion molecule 1, Cell adhesion): 2.01 fold
- Fold change (gene expression) (COL1A1 - Collagen type 1, ECM): 1.89 fold
- Fold change (gene expression) (COL5A1 - Collagen type V alpha 1 chain, ECM): 0.24 fold
- Fold change (gene expression) (CRISPLD2 - Cysteine-rich secretory protein LCCL domain-containing 2, ECM): 2.56 fold
- Fold change (gene expression) (CXCL3 - C-X-C motif chemokine ligand 3, Immune signaling): 8.16 fold
- Fold change (gene expression) (CYP1A1 - Cytochrome P450 family 1 subfamily A member 1, Drug metabolism): 5.04 fold
- Fold change (gene expression) (ECM1 - Extracellular matrix protein 1, ECM): 2.49 fold
- Fold change (gene expression) (EPHA4 - Ephrin type-A receptor 4, Cell adhesion, cell communication): 0.42 fold
- Fold change (gene expression) (EREG - Epiregulin, Growth): 9.61 fold
- Fold change (gene expression) (FABP5 - Fatty acid binding protein 5, Skin barrier): 1.68 fold
- Fold change (gene expression) (FGF1 - Fibroblast growth factor 1, Growth): 0.43 fold
- Fold change (gene expression) (FGF11 - Fibroblast growth factor 11, Growth): 0.56 fold
- Fold change (gene expression) (FLRT2 - Fibronectin leucine-rich transmembrane protein 2, ECM): 0.30 fold
- Fold Enrichment [1]: 2.39 fold
- Number of Genes Differentially Expressed [1]: 14
- Fold Enrichment (Gene Cluster Angiogenesis): 2.79 fold
- Number of Genes Differentially Expressed (Gene Cluster Angiogenesis): 34
- Fold Enrichment [2]: 1.49 fold
- Number of Genes Differentially Expressed [2]: 58
- Fold Enrichment (Gene Cluster Cell development): 4.12 fold
- Number of Genes Differentially Expressed (Gene Cluster Cell development): 9
- Fold Enrichment (Gene Cluster Cell surface): 1.85 fold
- Number of Genes Differentially Expressed (Gene Cluster Cell surface): 53
- Fold Enrichment [3]: 2.59 fold
- Number of Genes Differentially Expressed [3]: 36
- Fold Enrichment [4]: 3.08 fold
- Number of Genes Differentially Expressed [4]: 19
- Fold Enrichment [5]: 3.14 fold
- Number of Genes Differentially Expressed [5]: 12
- Fold Enrichment [6]: 4.52 fold
- Number of Genes Differentially Expressed [6]: 21
- Fold Enrichment [7]: 2.87 fold
- Number of Genes Differentially Expressed [7]: 11
- Fold Enrichment [8]: 1.23 fold
- Number of Genes Differentially Expressed [8]: 183
- Fold Enrichment [9]: 2.05 fold
- Number of Genes Differentially Expressed [9]: 22
- Fold Enrichment [10]: 1.60 fold
- Number of Genes Differentially Expressed [10]: 136
- Fold Enrichment [11]: 1.97 fold
- Number of Genes Differentially Expressed [11]: 140
- Fold Enrichment [12]: 3.63 fold
- Number of Genes Differentially Expressed [12]: 32
- Fold Enrichment (Gene Cluster Growth): 5.23 fold
- Number of Genes Differentially Expressed (Gene Cluster Growth): 8
- Fold Enrichment (Gene Cluster Heparin binding): 2.53 fold
- Number of Genes Differentially Expressed (Gene Cluster Heparin binding): 22
- Fold Enrichment [13]: 10.45 fold
- Number of Genes Differentially Expressed [13]: 4
- Fold Enrichment [14]: 2.61 fold
- Number of Genes Differentially Expressed [14]: 54
- Fold Enrichment [15]: 7.32 fold
- Number of Genes Differentially Expressed [15]: 6
- Fold Enrichment [16]: 3.13 fold
- Number of Genes Differentially Expressed [16]: 13
- Fold Enrichment [17]: 3.47 fold
- Number of Genes Differentially Expressed [17]: 11
- Fold Enrichment [18]: 2.17 fold
- Number of Genes Differentially Expressed [18]: 47
- Fold Enrichment [19]: 2.42 fold
- Number of Genes Differentially Expressed [19]: 16
- Fold Enrichment [20]: 3.33 fold
- Number of Genes Differentially Expressed [20]: 12
- Fold Enrichment [21]: 3.05 fold
- Number of Genes Differentially Expressed [21]: 10
- Fold Enrichment [22]: 2.64 fold
- Number of Genes Differentially Expressed [22]: 15
- Fold Enrichment [23]: 3.02 fold
- Number of Genes Differentially Expressed [23]: 19
- Fold Enrichment [24]: 2.88 fold
- Number of Genes Differentially Expressed [24]: 29
- Fold Enrichment [25]: 1.96 fold
- Number of Genes Differentially Expressed [25]: 50
- Fold Enrichment [26]: 1.82 fold
- Number of Genes Differentially Expressed [26]: 26
- Fold Enrichment [27]: 4.88 fold
- Number of Genes Differentially Expressed [27]: 16
- Fold Enrichment [28]: 2.47 fold
- Number of Genes Differentially Expressed [28]: 35
- Fold Enrichment (Gene Cluster Response to drug): 2.04 fold
- Number of Genes Differentially Expressed (Gene Cluster Response to drug): 34
- Fold Enrichment [29]: 4.82 fold
- Number of Genes Differentially Expressed [29]: 11
- Fold Enrichment (Gene Cluster Wound healing): 3.20 fold
- Number of Genes Differentially Expressed (Gene Cluster Wound healing): 14
- Fold change (gene expression) (HAS2 - hyaluronan synthase 2, ECM): 5.48 fold
- Fold change (gene expression) (HAS3 - hyaluronan synthase 3, ECM): 3.59 fold
- Fold change (gene expression) (HBEGF - Heparin-binding EGF-like growth factor, Growth): 8.61 fold
- Fold change (gene expression) (HIF1A - Hypoxia-inducible factor 1 subunit alpha, Oxidative stress): 1.36 fold
- Fold change (gene expression) (HMOX1 - Heme oxygenase 1, Oxidative stress): 5.23 fold
- Fold change (gene expression) (HS3ST1 - Heparan sulfate-glucosamine 3-sulfotransferase 1, ECM): 2.28 fold
- Fold change (gene expression) (IL1A - Interleukin 1 alpha, Cytokine signaling): 6.60 fold
- Fold change (gene expression) (IL1RL1 - Interleukin 1 receptor-like 1, Immune signaling): 17.29 fold
- Fold change (gene expression) (ITGA6 - Integrin subunit alpha 6, Cell adhesion): 1.44 fold
- Fold change (gene expression) (ITGBL1 - Integrin subunit beta-like 1, Cell adhesion): 0.68 fold
- Fold change (gene expression) (KIF13A - Kinesin family member 13A, Cytoskeleton/secretion): 0.67 fold
- Fold change (gene expression) (LAMA3 - Laminin subunit alpha 3, ECM): 1.59 fold
- Fold change (gene expression) (LAMC2 - Laminin subunit gamma 2, ECM): 2.72 fold
- Fold change (gene expression) (NGF - Nerve growth factor, Growth): 113.25 fold
- Fold change (gene expression) (NID2 - Nidogen 2 precursor, ECM): 1.45 fold
- Fold change (gene expression) (OCLN - Occludin, Skin barrier): 1.42 fold
- Fold change (gene expression) (OLFM4 - Olfactomedin 4, ECM): 0.10 fold
- Fold change (gene expression) (PARP15 - Poly (ADP-Ribose) polymerase family member 15, DNA damage repair/transcription regulation): 98.2 fold
- Fold change (gene expression) (PI3 - Peptidase inhibitor 3, elastase inhibitor, Elastin genes): 10.5 fold
- Fold change (gene expression) (PSAPL1 - Prosaposin-like 1, ECM): 0.30 fold
- Fold change (gene expression) (PSG5 - Pregnancy specific beta-1-glycoprotein 5, ECM): 0.30 fold
- Fold change (gene expression) (PTPRR - Protein tyrosine phosphatase receptor type R, Negative regulation of growth): 3.96 fold
- Fold change (gene expression) (RAPGEF3 - Rap guanine nucleotide exchange factor 3, Plasma membrane fusion/cytoskeleton): 1.78 fold
- Fold change (gene expression) (SELE - E-Selectin, Cell adhesion): 99.30 fold
- Fold change (gene expression) (SEMA3D - Semaphorin 3D, ECM/Nerve growth): 0.54 fold
- Fold change (gene expression) (SERPINB2 - Serpin family B member 2, Skin barrier): 4.25 fold
- Fold change (gene expression) (SERPINB4 - Serpin family B member 4, Skin barrier): 6.37 fold
- Fold change (gene expression) (SIRT1 - Sirtuin 1, Transcription regulation): 1.30 fold
- Fold change (gene expression) (SIRT7 - Sirtuin 7, Transcription regulation): 1.41 fold
- Fold change (gene expression) (SOD2 - Superoxide dismutase 2, Oxidative stress): 1.54 fold
- Fold change (gene expression) (TFP12 - Tissue factor pathway inhibitor 2, ECM): 2.37 fold
- Fold change (gene expression) (TGFB1 - Transforming growth factor beta 1, TGF-β signaling): 1.30 fold
- Fold change (gene expression) (TLR4 - Toll-like receptor 4, Immune signaling): 3.41 fold
- Fold change (gene expression) (TNC - Tenascin C, ECM/Nerve growth): 0.50 fold
- Fold change (gene expression) (TP73 - Tumor protein P73, Growth): 0.35 fold
- Fold change (gene expression) (TXNRD1 - Thioredoxin reductase 1, Oxidative stress): 1.52 fold
- Fold change (gene expression) (UGCG - UDP-glucose ceramide glucosyltransferase, Lipid metabolism and transport): 1.56 fold
- Fold change (gene expression) (VIT - Vitrin, ECM): 0.08 fold
